From ChEMBL document CHEMBL1201862, “PubChem BioAssay data set” (2004)
Activity calls are given as the source filed them.

How the values were obtained:
[1] = HEK293 cell cytotoxicity, dose response, cytotoxicity control, plate reader, cherry-picked samples (AID 743446); format: functional, cell-based
[2] = A Cell Based Secondary Assay To Explore Cytotoxicity of Compounds that Sensitize Mycobacterium Tuberculosis to Beta-Lactam Antibiotics.; format: functional
[3] = A549 cell cytotoxicity, dose response, cytotoxicity control, plate reader, cherry-pick, antagonist series (AID 743412); format: functional, cell-based
[4] = MC4R antagonists, dose response, counter-screen for LGR2 antagonist project, cell-based, plate reader, cherry pick (AID 743444); format: functional;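 further: transfected HEK 293 cells stimulated with alpha-MSH peptide; potency of inhibitors of the alpha-MSH evoked signal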
[5] = Luminescence Cell-Based Dose Retest to Confirm Inhibitors of Cancer Stem Cells. [Related pubchem assays (depositor defined):AID2717, AID2721]; format: functional; settings: Homo sapiens
[6] = LGR2 antagonists, dose response, cell-based, HEK293, CRE-luciferase reporter, cherry pick, set 2 (AID 743343); format: functional;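 further: transfected cells were stimulated with diluted bursicon conditioned medium after compound addition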
[7] = HepG2 cell cytotoxicity, dose response, cytotoxicity control, plate reader, cherry-pick, antagonist series (AID 743416); format: functional, cell-based
[8] = biological target: T1, DNA repair and recombination protein RAD54-like (Homo sapiens, UniProt Q92698); experiment: inhibitors of human RAD54 branch migration, confirmation, biochemical, fluorescence, cherry-picked samples, dose series (AID 651657); format: functional
T1 sequence (Q92698 whole entry): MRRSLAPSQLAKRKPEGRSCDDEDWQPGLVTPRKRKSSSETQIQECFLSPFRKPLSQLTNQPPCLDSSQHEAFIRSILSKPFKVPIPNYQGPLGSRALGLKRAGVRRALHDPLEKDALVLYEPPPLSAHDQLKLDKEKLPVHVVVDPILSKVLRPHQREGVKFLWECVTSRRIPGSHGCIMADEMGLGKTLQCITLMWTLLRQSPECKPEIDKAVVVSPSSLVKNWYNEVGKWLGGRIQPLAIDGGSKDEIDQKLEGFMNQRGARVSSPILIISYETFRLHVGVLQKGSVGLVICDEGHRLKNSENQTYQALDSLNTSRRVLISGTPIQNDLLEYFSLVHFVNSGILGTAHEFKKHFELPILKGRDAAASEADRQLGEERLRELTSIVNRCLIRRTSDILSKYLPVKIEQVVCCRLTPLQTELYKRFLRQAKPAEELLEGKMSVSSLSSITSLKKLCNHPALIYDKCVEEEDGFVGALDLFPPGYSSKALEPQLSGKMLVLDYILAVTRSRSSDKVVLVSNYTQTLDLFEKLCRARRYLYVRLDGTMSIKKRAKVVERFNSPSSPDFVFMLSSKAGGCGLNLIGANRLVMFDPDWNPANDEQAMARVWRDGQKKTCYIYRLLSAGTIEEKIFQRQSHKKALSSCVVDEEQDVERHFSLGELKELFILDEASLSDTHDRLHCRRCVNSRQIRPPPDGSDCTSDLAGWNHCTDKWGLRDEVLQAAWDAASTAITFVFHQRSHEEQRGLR

[9] = biological target: T2, DNA repair protein RAD52 homolog (Homo sapiens, UniProt P43351); format: functional, biochemical
T2 sequence (P43351 whole entry): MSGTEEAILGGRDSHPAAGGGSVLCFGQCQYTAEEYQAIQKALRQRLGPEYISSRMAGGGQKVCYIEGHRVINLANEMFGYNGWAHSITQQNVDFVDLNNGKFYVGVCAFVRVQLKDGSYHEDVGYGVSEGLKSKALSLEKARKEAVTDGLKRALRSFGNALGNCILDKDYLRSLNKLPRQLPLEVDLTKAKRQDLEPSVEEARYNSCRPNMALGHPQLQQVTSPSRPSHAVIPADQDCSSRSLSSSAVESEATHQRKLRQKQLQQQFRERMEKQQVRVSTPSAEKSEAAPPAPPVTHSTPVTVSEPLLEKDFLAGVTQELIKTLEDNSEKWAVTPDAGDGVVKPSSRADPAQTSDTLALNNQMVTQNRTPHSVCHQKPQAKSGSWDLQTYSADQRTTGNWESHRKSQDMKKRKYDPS

[10] = A cytotoxicity screen of small molecule inhibitors of the PhoP region in Salmonella typhi identified in the primary screen. [Related pubchem assays: 1850, 1864, 1985 ]; format: functional
[11] = biological target: T3, Short transient receptor potential channel 4 (Mus musculus, UniProt Q9QUQ5); experiment: mouse TRPC4 channel inhibitors, dose response, cell-based, HEK293 TRPC4/mu-opioid, Fluo-4 calcium (AID 434942); format: functional;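 further: potency of inhibitors blocking the TRPC4 calcium response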
T3 sequence (Q9QUQ5 whole entry): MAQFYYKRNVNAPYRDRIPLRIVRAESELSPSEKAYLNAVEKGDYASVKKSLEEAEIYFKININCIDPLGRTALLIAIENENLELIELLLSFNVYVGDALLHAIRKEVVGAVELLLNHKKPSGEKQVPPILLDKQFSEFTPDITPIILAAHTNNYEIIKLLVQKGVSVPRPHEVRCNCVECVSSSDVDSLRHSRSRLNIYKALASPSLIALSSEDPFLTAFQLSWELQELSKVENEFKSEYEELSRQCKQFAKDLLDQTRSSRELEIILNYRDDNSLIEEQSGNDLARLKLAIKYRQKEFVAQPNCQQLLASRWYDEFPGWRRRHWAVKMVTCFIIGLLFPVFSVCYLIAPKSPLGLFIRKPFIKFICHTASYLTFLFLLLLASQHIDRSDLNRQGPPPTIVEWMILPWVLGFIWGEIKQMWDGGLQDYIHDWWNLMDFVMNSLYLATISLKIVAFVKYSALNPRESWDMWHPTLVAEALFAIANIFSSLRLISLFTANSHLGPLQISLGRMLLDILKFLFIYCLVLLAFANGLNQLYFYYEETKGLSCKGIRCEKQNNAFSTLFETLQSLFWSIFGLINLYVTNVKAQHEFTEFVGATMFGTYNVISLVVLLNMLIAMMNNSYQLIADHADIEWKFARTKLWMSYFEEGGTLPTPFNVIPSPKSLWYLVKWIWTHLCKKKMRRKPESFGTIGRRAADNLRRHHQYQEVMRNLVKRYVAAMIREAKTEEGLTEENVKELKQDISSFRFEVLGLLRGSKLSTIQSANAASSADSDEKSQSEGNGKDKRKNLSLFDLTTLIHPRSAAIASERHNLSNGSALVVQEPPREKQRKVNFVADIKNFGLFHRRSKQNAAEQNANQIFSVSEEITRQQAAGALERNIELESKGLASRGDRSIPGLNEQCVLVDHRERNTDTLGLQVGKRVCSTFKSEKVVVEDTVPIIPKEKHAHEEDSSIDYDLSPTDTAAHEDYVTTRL

Escherichia coli = experiment: microbe, parasite or virus in culture
[12] = biological target: T3, Short transient receptor potential channel 4; experiment: mouse TRPC4 channel activators, dose response, cell-based, HEK293 TRPC4/mu-opioid, Fluo-4 calcium (AID 434937); format: functional
Cytochrome P450 2C19 = Cytochrome P450 2C19 (Homo sapiens, UniProt P33261); experiment: Cytochrome panel assay with activity outcomes. Panel member name: p450-cyp2c19 Compounds with AC50 equal or less than 10 uM are considered active; format: functional; settings: read-out: AC50
cells [13] = format: functional, cell-based
cells [14] = format: functional, cell-based; remark: listed apart in the source
[15] = NIH-3T3 fibroblast cytotoxicity, dose response, cytotoxicity control, cell-based, fluorescence, Alamar Blue, secondary assay (AID 2327); format: functional;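 further: NIH-3T3 mouse fibroblasts cultured with fluconazole at 8 µg/mL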
[16] = C. albicans growth with fluconazole, confirmation, fluorescence, retest (AID 2467); format: functional, cell-based
[17] = HEp-2 cell cytotoxicity, dose response, cytotoxicity control for RSV inhibitor project, HTS (AID 2410); format: functional; settings: human respiratory syncytial virus
[18] = tested on: Streptococcus sp. 'group A'; experiment: growth inhibition of control SK(-) GAS strain, dose response, counter-screen for streptokinase expression inhibitor project, luminescence, kanamycin, BacTiterGlo, confirmation (AID 1900); format: functional, organism-based
Streptococcus = experiment: Group A Streptococcus viability loss, dose response, counter-screen for streptokinase expression inhibitor project, luminescence, BacTiterGlo (AID 1915); format: functional, organism-based;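 further: potency for reduction of bacterial viability or growth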
[19] = biological target: Heat shock protein HSP 90-alpha (Homo sapiens, UniProt P07900); format: functional, organism-based
[20] = Fluorescence-based cell-based high throughput dose response assay for inhibitors of the interaction of nucleotide-binding oligomerization domain containing 2 (NOD2) and the receptor-interacting serine-threonine kinase 2 (RIPK2).; format: functional, Homo sapiens

Sequence of Cytochrome P450 2C19 (P33261 whole entry): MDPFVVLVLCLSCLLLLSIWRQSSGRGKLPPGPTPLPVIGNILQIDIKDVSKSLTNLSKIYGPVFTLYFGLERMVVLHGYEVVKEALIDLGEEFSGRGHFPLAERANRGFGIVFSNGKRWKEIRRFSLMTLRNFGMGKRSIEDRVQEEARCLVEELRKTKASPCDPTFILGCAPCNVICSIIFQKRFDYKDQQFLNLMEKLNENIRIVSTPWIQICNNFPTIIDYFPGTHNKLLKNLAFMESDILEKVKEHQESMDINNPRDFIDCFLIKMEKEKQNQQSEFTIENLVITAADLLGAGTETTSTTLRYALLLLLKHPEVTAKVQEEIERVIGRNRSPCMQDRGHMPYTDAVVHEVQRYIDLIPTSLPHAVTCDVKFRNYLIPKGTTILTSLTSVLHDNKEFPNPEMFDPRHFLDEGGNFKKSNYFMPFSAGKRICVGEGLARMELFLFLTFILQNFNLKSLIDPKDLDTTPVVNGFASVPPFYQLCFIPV

For Cn1nnnc1Sc1ncnc2scc(-c3ccc(C(F)(F)F)cc3)c12, the AC50 [1] was 8.08 µM (active), the CC50 [2] was 6.16 µM (active) and the AC50 [3] was 7.67 µM (active). For the same compound, the AC50 [4] was 17.7 µM (active), the AC50 [5] was 2.52 µM (active) and the AC50 [6] was 14.8 µM (active). For the same compound, the AC50 [7] was 8.47 µM (active).
With CCCCN(CC)CCCNC(=O)c1cc2c(-c3ccc(OC)c(OC)c3)nn(C)c2s1 the AC50 [8] was 9.31 µM (active) and the AC50 [9] was 3.21 µM (active).
In the case of NC(=O)CN1CCN(CCN2C(=O)c3cccc4cccc(c34)C2=O)CC1, the AC50 [8] is reported as 13.3 µM (active) and the AC50 [9] is reported as 12.1 µM (active).
In the case of CCn1cc(C(=O)NCCCN(C)C)c(=O)c2cc(F)c(N3CCN(C)CC3)cc21, the EC50 [10] is reported as > 50 µM (active).
With Cc1ccc(O)c(Sc2cc(C)ccc2O)c1 the EC50 [11] was 3.76 µM (active).
For Cc1ccc(NC(=O)c2ccc(Oc3ncccn3)cc2)cc1, the AC50 (Escherichia coli) was 37.9 µM (active).
For OC(CNC1CCCc2ccccc21)COc1ccc2ccccc2c1 (centres undefined), the EC50 [12] was 5.96 µM (active).
With C[C@@H](C(=O)NC1CCCC1)N1C(=O)N2CCc3c([nH]c4ccccc34)[C@@]2(C)C1=O the EC50 [10] was > 50 µM (active).
For Cc1ccc(-c2csc(N(CCCN(C)C)C(=O)c3ccco3)n2)cc1, the EC50 [11] was 2.11 µM (active) and the AC50 [9] was 11.7 µM (active).
With COc1ccccc1-n1nc(C(=O)Nc2ccc3c(c2)OCO3)c2ccccc2c1=O the AC50 (Escherichia coli) was 74.7 µM (active).
With CC1CC(C)CN(CCCNC(=O)COc2cc(=O)n(C)c3ccccc23)C1 (centres undefined) the EC50 [12] was 0.749 µM (active).
With CCN(CC)CCNC(=O)c1cc2c(=O)n(C)c3ccccc3c2n1C the AC50 [8] was 18.3 µM (active).
In the case of O=C(NC1CCN(Cc2ccccc2)CC1)C12CC3CC(CC(C3)C1)C2, the EC50 [12] is reported as 1.5 µM (active).
For O=C(O)C1C2C=CC(C2)C1C(=O)N1CCN(C/C=C/c2ccccc2)CC1 (centres undefined), the AC50 (Cytochrome P450 2C19) was 14.1 µM (inconclusive) and the EC50 [12] was 5.96 µM (active).
With O=C1NC(=O)N(CCc2ccccc2)C(=O)/C1=C/NCc1ccc2c(c1)OCO2 the AC50 (Escherichia coli) was 43.4 µM (active).
With CCOc1ncccc1C(=O)N(CC)CC(=O)Nc1ccc(NC(C)=O)cc1 the AC50 (Escherichia coli) was 96.8 µM (active).
For O=Cc1cc(N=Nc2ccccc2Cl)ccc1O, the EC50 (cells [13]) was > 350 µM (not active), the EC50 (cells [14]) was 198 µM (active) and the EC50 [15] was > 160 µM (inactive). The EC50 [11] was 15 µM (active), the EC50 [16] was > 38 µM (not active) and the CC50 [17] was 7.07 µM (active). For the same compound, the EC50 [18] was 5.05 µM (active) and the EC50 (Streptococcus) was 6.24 µM (active).
For OC(Cn1cncn1)(c1ccccc1)c1ccccc1, the AC50 [19] was 1.43 µM (active).
For CC1CCCCN1S(=O)(=O)c1ccc(NC(=O)c2ccco2)cc1 (centres undefined), the AC50 (Escherichia coli) was 32.1 µM (active).
With Cc1cc(C)c2nc(C)cc(Nc3ccc(C(=O)NCCO)cc3)c2c1 the AC50 [8] was 32.6 µM (active).
In the case of CC(=O)OC1CC2OC3C=C(C)CCC3(C)C1(C)C21CO1 (centres undefined), the IC50 [20] is reported as 49.8 µM (inactive).
For COc1ccc(-n2nc(C(=O)NCC(=O)NCCCN3CC(C)CC(C)C3)c3ccccc3c2=O)cc1Cl (centres undefined), the EC50 [12] was 1.5 µM (active).
